# Key:
# [1] = system: lettuce seedling strain Raviv; conditions: in vivo, 3 days
# Experimental: (§2) An experiment in a larger scale was performed in loam soil in which the seedling were planted directly in the treated plot. The soil was treated with 0, 25, 50, 100, 200, 400, 800, and 1,600 ppm of emulsion of trans-2-octenal. The compound was applied using the irrigation system. A day later, tomato seedling strains Ikram and Abigail and lettuce seedling strain Raviv (10 seedlings each) were planted into the treated soil of each concentration. Eleven days later, the number of viable seedlings was counted.
# [2] = system: S. rolfsii; test: Fungicidal activity assay on PDA in sealed Petri dish (growth inhibition and mortality); format: cell-based, Sclerotinia rolfsii; conditions: Agroathelia rolfsii; S. rolfsii; NA + number = still viable in the highest concentration tested (given as >); read-out: M - Mortality, minimal concentration that killed the fungus
# Experimental: (§1) Each compound was placed on a disconnected cover from an Eppendorf tube that was located in the middle of the Petri dish and a hyphae-containing plug of each test fungus was added to the culture plate. In exemplary procedures, the tested compounds trans-2-heptenal, trans-2-octenal were tested in comparison with octanal, trans-2-octen-1-ol, methyl trans-2-octenoate, trans-3-octen-2-one and 3-pentenenitrile. In addition, cyclic ketones as 2-cyclopenten-1-one, 2-cyclohexen-1-one and α-tetralone were also examined. Then, the culture plate was sealed with parafilm and incubated at room-temperature for 2 days, after which the growth of the test fungi in those dishes was compared with those in the test compound-free control dishes. At the end of the assay, the viability of each test fungus was evaluated by transferring inoculum plugs to fresh PDA plates and observing the growth that developed within the next 2 days. The test fungi used in this study included but were not limited to Alternaria alternata, Botrytis cinerea, Sclerotinia rolfsii, Penicillium digitatum, Fusarium oxysporum f. sp. radicis-cucumerinum and Rhizoctonia solani.
# [3] = system: peanut seeds; test: Phytotoxic effect on peanut seeds in pots of loam soil; format: in vivo; conditions: 16 days; for Number of germinated seeds: 9 seeds sown
# Text: The phytotoxic effect of 2-cyclohexen-1-one was also examined on peanut seeds. The concentrations tested were: 0, 10, 20, and 40 ppm, 3 pots for each concentration. After mixing the loam soil with 2-cyclohexne-1-one, three peanut seeds were sown in each pot and let to grow for 16 days.
# [4] = system: tomato strain Ikram; conditions: in vivo, 3 days
# Experimental: as §2
# [5] = system: test fungi; test: Fungicidal activity assay on PDA, summaries over the test fungi; format: cell-based; conditions: comparison within the series
# Experimental: as §1, with “In exemplary procedures, the fungicidial activity of the compounds listed in Table 2 were examined by activity assays as follow: Petri dishes, 90 mm in diameter, with air volume of 80 mL, contained 10-12 mL of growth medium comprising potato dextrose agar (PDA) (Acumedia, Lansing, Michigan, USA) amended with tetracycline at 12 μg/mL. Each” for “Each”
# [6] = system: Meloidogyne javanica J2s; test: Greenhouse nematocidal experiment with susceptible tomato plants in inoculated loam; format: in vivo; conditions: tomato harvested after 8 weeks
# Experimental: The activity of trans-2-octenal against nematodes was examined in a greenhouse experiment using stage 2 juveniles of the rot-knot nematode Meloidogyne javanica. […] After 2 days, the inoculated soil was treated with 30 ppm of trans-2-octenal and incubated for additional 5 days. Then, susceptible tomato plants were planted, and allowed to grow in a growing chamber for 8 weeks. At the end of the experiment, the plants, along with their root systems, were harvested from their pots and evaluated for incidence of root galling. In addition, M. javanica eggs were extracted from each root and counted, and the number of eggs per gram root was calculated. As shown in FIGS. 14A-14D, trans-2-octenal reduced the galling index and the number of eggs per gram root. […] The activity of 2-cyclohexen-1-one against nematodes was examined in a greenhouse experiment using stage 2 juveniles of the rot-knot nematode Meloidogyne javanica. The experiment was performed as described for trans-2-octenal. […] After 2 days, the inoculated soil was treated with 15 or 31 ppm of 2-cyclohexen-1-one and incubated for additional 5 days. Then, susceptible tomato plants were planted, and allowed to grow in a growing chamber for 8 weeks. At the end of the experiment, the plants, along with their root systems, were harvested from their pots and evaluated for incidence of root galling. In addition, M. javanica eggs were extracted from each root and counted, and the number of eggs per gram root was calculated.
# [7] = system: F. oxysporum f. sp. radicis-cucumerium; test: Fungicidal activity assay on PDA in sealed Petri dish (growth inhibition and mortality); format: cell-based, Fusarium oxysporum f. sp. radicis-cucumerinum; conditions: Fusarium oxysporum, NA + number = still viable in the highest concentration tested (given as >), read-out: M - Mortality, minimal concentration that killed the fungus
# Experimental: as §1
# [8] = system: tomato strain Kilates; conditions: in vivo, 3 days
# Experimental: The soil was treated with 0, 400 and 800 ppm of emulsion of 2-cyclohexene-1-one. The compound was applied using the irrigation system. A day later, tomato seedling strains Ikram, and Kilates and lettuce seedling strain Raviv (10 seedlings each) were planted into the treated soil of each concentration. Three (3) days later, the number of seedlings was counted.
# [9] = system: tomato seedlings strain Ikram; test: Phytotoxic effect on tomato seedlings in pots of pretreated loam soil; format: in vivo; conditions: 9 days
# Experimental: The phytotoxic effect of 2-cyclohexen-1-one in pots was examined on tomato seedlings strain Ikram. Pots (9-10 repetitions) were filled with 500 g of loam soil pretreated with 2-cyclohexen-1-one at final concentration of 0, 50, and 60 ppm. Then, tomato seedling was planted in each pot and allowed to grow for 9 days. The phytotoxic effect was evaluated by counting the number of live seedling and measuring their heights.
# [10] = system: R. solani; test: microbe, parasite or virus in culture; format: cell-based; conditions: Rhizoctonia solani, read-out: M - Mortality, minimal concentration that killed the fungus
# Experimental: as §1
smiles,measurement,setting,value
O=C1C=CCCC1 [2-cyclohexen-1-one],concentration at which phytotoxic effect was displayed,[1],800 ppm
same,MFC,[2],> 25 mg/L
same,% Viability,[3]; 10 ppm,89%
same,Number of germinated seeds,[3]; 10 ppm,8
same,% Viability,[3]; 20 ppm,100%
same,Number of germinated seeds,[3]; 20 ppm,9
same,% Viability,[3]; 40 ppm,89%
same,Number of germinated seeds,[3]; 40 ppm,8
same,concentration at which phytotoxic effect occurred,[4],400 ppm
same,fungicidal activity in words,[5],"fungicidal activity, to some extent"
same,concentration sufficient to reduce the galling index and the number of eggs per gram root,[6],15 ppm
same,MFC,[7],> 25 mg/L
same,concentration at which phytotoxic effect occurred,[8],400 ppm
same,% Viability,[9]; 50 ppm,100%
same,Seedling height (Mean ± SD),[9]; 50 ppm,21 ± 3 cm
same,% Viability,[9]; 60 ppm,67%
same,Seedling height (Mean ± SD),[9]; 60 ppm,16 ± 2 cm
same,concentration at which phytotoxic effect was obtained,"[9]; of 0, 50 and 60 ppm tested",60 ppm
same,MFC,[10],> 25 mg/L

# Source: US11998008B2, “Pesticides and methods of controlling pests” (The State of Israel, Ministry of Agriculture & Rural …, priority 2017, dated 2024)
